US10392379B2, “Hepatitis B core protein modulators” (Assembly Biosciences, Inc., priority 2015, dated 2019)

What was measured:
HBV = assay: Viral load production in AD38 cells by quantitative PCR of the core sequence; type: cell-based; conditions: Hepatitis B virus, 144 h, 10 μM compound, 6 days, supernatant qPCR, relative to DMSO control, read-out: AD38 Viral Load (%) (VL with cmpd/VL in DMSO control) at 10 μM
Procedure: (§1) AD38 cells were then re-suspended with 10 mL of Treatment Medium and counted. Wells of a collagen coated 96-well NUNC microtiter plate were seeded at 50,000/well in 180 μL of Treatment Medium, and 20 μL of in treatment media with either 10% DMSO (Control) or a 10× solution of compound in 10% DMSO was added. Plates were incubated for 6 days at 37° C.
Viral load production was assayed by quantitative PCR of the core sequence. […] The PCR mixture was incubated at 45° C. for 5 minutes, then 95° C. for 10 min, followed by 40 cycles of 10 seconds at 95° C. and 20 seconds at 60° C. Viral load was quantitated against known standards by using ViiA™ 7 Software. Viral load in the supernatant from wells with treated cells were compared against viral load in supernatant from DMSO control wells (≥3 per plate).

AD38 cells = assay: Viability of AD38 cells (Promega CellTiter-Glo); type: cell-based; conditions: 10 μM compound, 6 days, DMSO controls = 100%
Procedure: as §1
At the end of compound treatment period cell viability was assessed using a Promega CellTiter-Glo protocol. All supernatant was removed the previously treated 96-well microtiter plate, and 50 μL Tetracycline-free treatment medium (DMEM/F12 (1:1), 1× Pen/step (cat#: 30-002-CL, Mediatech, Inc), with 2% FBS, Tet-system approved (cat#: 631106, Clontech), and 1% DMSO was added back to each well. Another 50 μL of CellTiter-Glo reagent solution (Promega, G7573) was then added at room temperature and the contents mixed for 2 minutes on an orbital shaker to induce cell lysis. This was followed by incubation at room temperature for 10 minutes to stabilize the luminescent signal. The luminescence was recorded for 0.2 seconds per well on a Tecan multimode platereader (Infinite M1000 pro). The luminescent signal from each well was normalized against that of untreated (DMSO) control wells. All results in Table 3 were reported with percent viability (with controls being 100%).

Compound | activity at 10 µM (HBV) | AD38 Viability Normalized Result (cmpd/DMSO %) at 10 μM (AD38 cells)
O=C(NCc1cnc(-c2ccc3[nH]ncc3c2)nc1)c1ccc2c(c1)NC(=O)c1ccccc1S2(=O)=O [Compound 790] | 1.7% | 103%
O=C(NCc1nnc(-c2ccc(O)cc2)s1)c1ccc2c(c1)NC(=O)c1ccccc1S2(=O)=O [Compound 807] | 0.9% | 96%
O=C(NCc1cnc(-c2ccc(O)cc2Cl)nc1)c1ccc2c(c1)NC(=O)c1ccccc1S2(=O)=O [Compound 793] | 3.5% | 103%
Nc1ncc(-c2ccc(CNC(=O)c3ccc4c(c3)NC(=O)c3ccccc3S4(=O)=O)cn2)cn1 [Compound 782] | 25.4% | 108%
O=C(NCc1ccc(-c2ccc3[nH]cnc3c2)nc1)c1ccc2c(c1)NC(=O)c1ccccc1S2(=O)=O [Compound 781] | 7.3% | 102%
O=C(NCc1cccnc1)c1ccc2c(c1)NC(=O)c1ccccc1N2 [Compound 507] | 51.9% | 103%
O=C(NCCc1ccccn1)c1ccc2c(c1)NC(=O)c1ccccc1N2 [Compound 505] | 48.2% | 103%
O=C(NCc1cnc(-c2ccccc2CO)nc1)c1ccc2c(c1)NC(=O)c1ccccc1S2(=O)=O [Compound 844] | 10.2% | 103%
O=C(NCc1cncnc1)c1ccc2c(c1)NC(=O)c1ccccc1N2 [Compound 504] | 62.9% | 101%
N#Cc1ccc(-c2ncc(CNC(=O)c3ccc4c(c3)NC(=O)c3ccccc3S4(=O)=O)cn2)cc1 [Compound 871, N-((2-(4-cyanophenyl)pyrimidin-5-yl)methyl)-11-oxo-10, 11-dihydrodibenzo[b,f][1,4]thiazepine-8-carboxamide 5,5-dioxide] | 1.3% | 96%
O=C(NCc1cncnc1)c1ccc2c(c1)NC(=O)c1ccc(Cl)cc1S2 [Compound 542] | 1.6% | 106%
NC(=O)c1ccc(-c2ccc(CNC(=O)c3ccc4c(c3)NC(=O)c3ccccc3S4(=O)=O)cn2)cc1 [Compound 868, N-((6-(4-carbamoylphenyl)pyridin-3-yl)methyl)-11-oxo-10,11-dihydrodibenzo[b,f][1,4]thiazepine-8-carboxamide 5,5-dioxide] | 27.7% | 103%
O=C(NCc1ccc(-c2ccc(O)cc2F)nc1)c1ccc2c(c1)NC(=O)c1ccccc1S2(=O)=O [Compound 785] | 2.1% | 94%
O=C(NCc1cnc(-c2ccc(O)c(Cl)c2)nc1)c1ccc2c(c1)NC(=O)c1ccccc1S2(=O)=O [Compound 794] | 1.3% | 104%
O=C(NCc1ccc(-c2ccc(O)c(Cl)c2)nc1)c1ccc2c(c1)NC(=O)c1ccccc1S2(=O)=O [Compound 784] | 137% | 103%
O=C(NCCc1cccnc1)c1ccc2c(c1)NC(=O)c1ccccc1N2 [Compound 506] | 31.6% | 100%
O=C(NCc1ccc(-c2ccc(O)c(F)c2)nc1)c1ccc2c(c1)NC(=O)c1ccccc1S2(=O)=O [Compound 786] | 5% | 105%
COc1ccc(Cc2ccc(CNC(=O)c3ccc4c(c3)NC(=O)c3ccccc3S4(=O)=O)cn2)cc1 [Compound 825-A, N-((6-(4-methoxybenzyl)pyridin-3-yl)methyl)-11-oxo-10, 11-dihydrodibenzo[b,f][1,4]thiazepine-8-carboxamide 5,5-dioxide] | 6.2% | 58%
O=C(NCc1cnc(-c2ccc3[nH]ccc3c2)nc1)c1ccc2c(c1)NC(=O)c1ccccc1S2(=O)=O [Compound 789] | 0.4% | 108%
N#Cc1ccc(-c2ccc(CNC(=O)c3ccc4c(c3)NC(=O)c3ccccc3S4(=O)=O)cn2)cc1 [Compound 867] | 0.6% | 86%

Compound | activity at 10 µM (HBV) | AD38 Viability Normalized Result (cmpd/DMSO %) at 10 μM (AD38 cells)
O=C(NCc1ccc(C(F)(F)F)nc1)c1ccc2c(c1)NC(=O)c1ccccc1S2(=O)=O [Compound 875] | 26.1% | 108%
O=C(NCc1cncnc1)c1ccc2c(c1)NC(=O)c1cc(Cl)ccc1S2 [Compound 539] | 0.2% | 0%
O=C(NCc1ccc(-c2ccc3[nH]ccc3c2)nc1)c1ccc2c(c1)NC(=O)c1ccccc1S2(=O)=O [Compound 779] | 0.5% | 87%
CC1c2ccc(C(=O)NCc3cccnc3)cc2NC(=O)c2ccccc21 (stereo not drawn) [Compound 547] | 1.5% | 99%
COc1ccc(Cc2ccc(CNC(=O)c3ccc4c(c3)NC(=O)c3ccccc3O4)cn2)cc1 [Compound 837-A, N-((6-(4-methoxybenzyl)pyridin-3-yl)methyl)-11-oxo-10, 11-dihydrodibenzo[b,f][1, 4]oxazepine-8-carboxamide] | 5.6% | 105%
Cc1cc2c(cc1C(=O)NCc1cncnc1)NC(=O)c1ccccc1S2 [Compound 495] | 23.1% | 96%
NC(=O)c1ccc(-c2ncc(CNC(=O)c3ccc4c(c3)NC(=O)c3ccccc3S4(=O)=O)cn2)cc1 [Compound 872, N-((2-(4-carbamoylphenyl)pyrimidin-5-yl)methyl)-11-oxo-10, 11-dihydrodibenzo[b,f][1,4]thiazepine-8-carboxamide 5,5-dioxide] | 5.2% | 104%
Cc1cc2c(cc1C(=O)NCc1cccnc1)NC(=O)c1ccccc1S2 [Compound 497] | 38.7% | 97%
O=C(NCc1ccc(-c2ccccc2CO)nc1)c1ccc2c(c1)NC(=O)c1ccccc1S2(=O)=O [Compound 843] | 18.8% | 103%
O=C(NCc1cnc(-c2ccc(O)cc2F)nc1)c1ccc2c(c1)NC(=O)c1ccccc1S2(=O)=O [Compound 795] | 6.4% | 106%
CC1c2ccc(C(=O)NCc3cncnc3)cc2NC(=O)c2ccccc21 (stereo not drawn) [Compound 545] | 1.4% | 95%
N#Cc1ccc(-c2ccc(CNC(=O)c3ccc4c(c3)NC(=O)c3ccccc3S4(=O)=O)nc2)cc1 [Compound 869, N-((5-(4-cyanophenyl)pyridin-2-yl)methyl)-11-oxo-10,11-dihydrodibenzo[b, f][1,4]thiazepine-8-carboxamide 5,5-dioxide] | 13.3% | 83%
O=C(NCc1cnc(-c2ccc(O)cc2)nc1)c1ccc2c(c1)NC(=O)c1ccccc1S2(=O)=O [Compound 788] | 1.9% | 111%
O=C(NCc1cnc(-c2ccc3[nH]cnc3c2)nc1)c1ccc2c(c1)NC(=O)c1ccccc1S2(=O)=O [Compound 791] | 2.2% | 100%
O=C(NCc1ccc(Cc2ccc(O)cc2)nc1)c1ccc2c(c1)NC(=O)c1ccccc1S2(=O)=O [Compound 825, N-((6-(4-hydroxybenzyl)pyridin-3-yl)methyl)-11-oxo-10,11-dihydrodibenzo[b,f][1,4]thiazepine-8-carboxamide 5,5-dioxide] | 6.6% | 90%
O=C(NCc1ccc(Cc2ccc(O)cc2)nc1)c1ccc2c(c1)NC(=O)c1ccccc1O2 [Compound 837, N-((6-(4-hydroxybenzyl)pyridin-3-yl)methyl)-11-oxo-10,11-dihydrodibenzo[b,f][1,4]oxazepine-8-carboxamide] | 0.9% | 108%
O=C(NCc1ccc(-c2cc(F)c(O)c(F)c2)nc1)c1ccc2c(c1)NC(=O)c1ccccc1S2(=O)=O [Compound 787] | 15.5% | 100%
O=C(NCc1ccc(-c2ccc(O)cc2Cl)nc1)c1ccc2c(c1)NC(=O)c1ccccc1S2(=O)=O [Compound 783] | 6.3% | 105%
O=C(NCc1cnc(-c2ccc(O)c(F)c2)nc1)c1ccc2c(c1)NC(=O)c1ccccc1S2(=O)=O [Compound 796] | 1.4% | 111%
